This note sets out measurements from US9486506B2 (Novo Nordisk A/S, priority 2011, dated 2016).

Numbered stars: 1 amine (or outer) side, 2 acyl side, 3 side chain; on linkers, the order of the positions; unused ones are H or OH. Side chains are listed from the residue outwards. Peptide text beside a SMILES is read from it. * marks the point of attachment. C18 diacid = O=C(O)CCCCCCCCCCCCCCCCC(=O)*; C16 diacid = O=C(O)CCCCCCCCCCCCCCC(=O)*; γGlu = O=C(O)[C@H](CCC(=O)[*:2])N[*:1]; AEEA = NCCOCCOCC(=O)O

Data set [1] has as its target T1, glucagon receptor (Homo sapiens, UniProt P47871).
T1 construct: expressed in transfected cells
Description: Assay (I) Glucagon activity (cAMP biosensor, FLIPR). It is filed as cell-based.

The nature of data set [2]: Assay (X) Chemical stability assessment by RP-UPLC. The class given is physicochemical. The settings on record: pH 8.15, 14 days at 37° C. vs 5° C., 333 μM.

T1 sequence (P47871 26-477): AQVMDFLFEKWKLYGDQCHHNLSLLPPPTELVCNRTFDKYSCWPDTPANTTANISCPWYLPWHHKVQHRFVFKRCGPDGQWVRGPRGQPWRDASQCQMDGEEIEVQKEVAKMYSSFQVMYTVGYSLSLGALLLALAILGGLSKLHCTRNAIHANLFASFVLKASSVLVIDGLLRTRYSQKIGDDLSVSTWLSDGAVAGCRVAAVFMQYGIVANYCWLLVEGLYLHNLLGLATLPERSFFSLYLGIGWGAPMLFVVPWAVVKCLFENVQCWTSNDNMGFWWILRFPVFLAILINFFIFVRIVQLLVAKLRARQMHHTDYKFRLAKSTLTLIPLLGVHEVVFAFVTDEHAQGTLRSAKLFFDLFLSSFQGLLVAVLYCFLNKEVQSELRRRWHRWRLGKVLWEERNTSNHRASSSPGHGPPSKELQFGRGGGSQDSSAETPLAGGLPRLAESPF

Regarding `CC(C)C[C@H](NC(=O)[C@H](Cc1ccc(O)cc1)NC(=O)[C@H](CCCNC(=N)N)NC(=O)[C@H](CO)NC(=O)[C@H](Cc1ccc(O)cc1)NC(=O)[C@H](CC(=O)O)NC(=O)[C@H](CO)NC(=O)[C@@H](NC(=O)[C@H](Cc1ccccc1)NC(=O)[C@@H](NC(=O)CNC(=O)[C@H](CCC(N)=O)NC(=O)[C@H](CO)NC(=O)[C@@H](N)Cc1c[nH]cn1)[C@@H](C)O)[C@@H](C)O)C(=O)N[C@@H](CCC(=O)O)C(=O)N[C@@H](CO)C(=O)N[C@@H](CCCNC(=N)N)C(=O)N[C@@H](CCCNC(=N)N)C(=O)N[C@@H](C)C(=O)N[C@@H](CCC(N)=O)C(=O)N[C@@H](CC(=O)O)C(=O)N[C@@H](Cc1ccccc1)C(=O)N[C@H](C(=O)N[C@@H](CCCCNC(=O)CC[C@H](NC(=O)CC[C@H](NC(=O)COCCOCCNC(=O)COCCOCCNC(=O)CC[C@H](NC(=O)CCCCCCCCCCCCCCC(=O)O)C(=O)O)C(=O)O)C(=O)O)C(=O)N[C@@H](Cc1c[nH]c2ccccc12)C(=O)N[C@@H](CC(C)C)C(=O)N[C@@H](CC(C)C)C(=O)N[C@@H](CO)C(=O)N[C@H](C(=O)O)[C@@H](C)O)C(C)C` [Example 70, N^ε24-[(4S)-4-carboxy-4-[[(4S)-4-carboxy-4-[[2-[2-[2-[[2-[2-[2-[[(4S)-4-carboxy-4-(15-carboxypentadecanoylamino)butanoyl]amino]ethoxy]ethoxy]acetyl]amino]ethoxy]ethoxy]acetyl]amino]butanoyl]amino]butanoyl]-[Arg12,Glu15,Lys24,Leu27,Ser28]-Glucagon] (H-HSQGTFTSDYSRYLESRRAQDFVK([γGlu-γGlu-AEEA-AEEA-γGlu-C16 diacid])WLLST-OH), a half-maximal response in data set [1] (EC50) required 0.14 nM. In data set [2], the “Chemical stability [Purity loss/14 days 37 C.]” value amounted to 7.6%.

In the case of `CC(C)C[C@H](NC(=O)[C@H](Cc1ccc(O)cc1)NC(=O)[C@H](CCCCN)NC(=O)[C@H](CO)NC(=O)[C@H](Cc1ccc(O)cc1)NC(=O)[C@H](CC(=O)O)NC(=O)[C@H](CO)NC(=O)[C@@H](NC(=O)[C@H](Cc1ccccc1)NC(=O)[C@@H](NC(=O)CNC(=O)[C@H](CCC(N)=O)NC(=O)[C@H](CO)NC(=O)[C@@H](N)Cc1c[nH]cn1)[C@@H](C)O)[C@@H](C)O)C(=O)N[C@@H](CCC(=O)O)C(=O)N[C@@H](CO)C(=O)N[C@@H](CCCNC(=N)N)C(=O)N[C@@H](CCCNC(=N)N)C(=O)N[C@@H](C)C(=O)N[C@@H](CCC(N)=O)C(=O)N[C@@H](CC(=O)O)C(=O)N[C@@H](Cc1ccccc1)C(=O)N[C@H](C(=O)N[C@@H](CCCCNC(=O)CC[C@H](NC(=O)CC[C@H](NC(=O)COCCOCCNC(=O)COCCOCCNC(=O)CC[C@H](NC(=O)CCCCCCCCCCCCCCCCC(=O)O)C(=O)O)C(=O)O)C(=O)O)C(=O)N[C@@H](Cc1c[nH]c2ccccc12)C(=O)N[C@@H](CC(C)C)C(=O)N[C@@H](CC(C)C)C(=O)N[C@@H](CO)C(=O)N[C@H](C(N)=O)[C@@H](C)O)C(C)C` [Example 58, N^ε24-[(4S)-4-carboxy-4-[[(4S)-4-carboxy-4-[[2-[2-[2-[[2-[2-[2-[[(4S)-4-carboxy-4-(17-carboxyheptadecanoylamino)butanoyl]amino]ethoxy]ethoxy]acetyl]amino]ethoxy]ethoxy]acetyl]amino]butanoyl]amino]butanoyl]-[Glu15,Lys24,Leu27,Ser28]-Glucagon amide], in data set [1], the response was half-maximal at 0.134 nM (EC50). Besides, the “Chemical stability [Purity loss/14 days 37 C.]” value in data set [2] turned out to be 7.3%.

Take `CC(C)C[C@H](NC(=O)[C@H](Cc1ccc(O)cc1)NC(=O)[C@H](CCCNC(=N)N)NC(=O)[C@H](CO)NC(=O)[C@H](Cc1ccc(O)cc1)NC(=O)[C@H](CC(=O)O)NC(=O)[C@H](CO)NC(=O)[C@@H](NC(=O)[C@H](Cc1ccccc1)NC(=O)[C@@H](NC(=O)CNC(=O)[C@H](CCC(N)=O)NC(=O)[C@H](CO)NC(=O)[C@@H](N)Cc1c[nH]cn1)[C@@H](C)O)[C@@H](C)O)C(=O)N[C@@H](CC(=O)O)C(=O)N[C@@H](CCC(=O)O)C(=O)N[C@@H](CCCNC(=N)N)C(=O)N[C@@H](CCCNC(=N)N)C(=O)N[C@@H](C)C(=O)N[C@@H](CCC(N)=O)C(=O)N[C@@H](CC(=O)O)C(=O)N[C@@H](Cc1ccccc1)C(=O)N[C@H](C(=O)N[C@@H](CCCCNC(=O)CC[C@H](NC(=O)CC[C@H](NC(=O)COCCOCCNC(=O)COCCOCCNC(=O)CC[C@H](NC(=O)CCCCCCCCCCCCCCCCC(=O)O)C(=O)O)C(=O)O)C(=O)O)C(=O)N[C@@H](Cc1c[nH]c2ccccc12)C(=O)N[C@@H](CC(C)C)C(=O)N[C@@H](CC(C)C)C(=O)N[C@@H](CO)C(=O)N[C@H](C(=O)O)[C@@H](C)O)C(C)C` [Example 42, N^ε24-[(4S)-4-carboxy-4-[[(4S)-4-carboxy-4-[[2-[2-[2-[[2-[2-[2-[[(4S)-4-carboxy-4-(17-carboxyheptadecanoylamino)butanoyl]amino]ethoxy]ethoxy]acetyl]amino]ethoxy]ethoxy]acetyl]amino]butanoyl]amino]butanoyl]-[Arg12,Glu16,Lys24,Leu27,Ser28]-Glucagon] (H-HSQGTFTSDYSRYLDERRAQDFVK([γGlu-γGlu-AEEA-AEEA-γGlu-C18 diacid])WLLST-OH): the EC50 (as a rule, the midpoint of the concentration-response curve) in data set [1] was 0.153 nM. Besides, the “Chemical stability [Purity loss/14 days 37 C.]” value in data set [2] amounted to 7.2%.

In turn, `CC(C)C[C@H](NC(=O)[C@H](Cc1c[nH]c2ccccc12)NC(=O)[C@H](CCCCNC(=O)CC[C@H](NC(=O)CC[C@H](NC(=O)COCCOCCNC(=O)COCCOCCNC(=O)CC[C@H](NC(=O)CCCCCCCCCCCCCCCCC(=O)O)C(=O)O)C(=O)O)C(=O)O)NC(=O)[C@@H](NC(=O)[C@H](Cc1ccccc1)NC(=O)[C@H](CC(=O)O)NC(=O)[C@H](CCC(N)=O)NC(=O)[C@H](C)NC(=O)[C@H](CCCNC(=N)N)NC(=O)[C@H](CCCNC(=N)N)NC(=O)[C@@H](NC(=O)[C@H](CC(=O)O)NC(=O)[C@H](CC(C)C)NC(=O)[C@H](Cc1ccc(O)cc1)NC(=O)[C@H](CCCNC(=N)N)NC(=O)[C@H](CO)NC(=O)[C@H](Cc1ccc(O)cc1)NC(=O)[C@H](CC(=O)O)NC(=O)[C@H](CO)NC(=O)[C@@H](NC(=O)[C@H](Cc1ccccc1)NC(=O)[C@@H](NC(=O)CNC(=O)[C@H](CCC(N)=O)NC(=O)[C@H](CO)NC(=O)[C@@H](N)Cc1c[nH]cn1)[C@@H](C)O)[C@@H](C)O)[C@@H](C)O)C(C)C)C(=O)N[C@@H](CC(C)C)C(=O)N[C@@H](CO)C(=O)N[C@H](C(=O)O)[C@@H](C)O` [Example 22, N^ε24-[(4S)-4-carboxy-4-[[(4S)-4-carboxy-4-[[2-[2-[2-[[2-[2-[2-[[(4S)-4-carboxy-4-(17-carboxyheptadecanoylamino)butanoyl]amino]ethoxy]ethoxy]acetyl]amino]ethoxy]ethoxy]acetyl]amino]butanoyl]amino]butanoyl]-[Arg^12,Thr^16,Lys^24,Leu^27,Ser^28]-Glucagon] (H-HSQGTFTSDYSRYLDTRRAQDFVK([γGlu-γGlu-AEEA-AEEA-γGlu-C18 diacid])WLLST-OH) had an EC50 in data set [1] of 0.297 nM. Moreover, the “Chemical stability [Purity loss/14 days 37 C.]” value in data set [2] came to 8.8%.

`CC(C)C[C@H](NC(=O)[C@H](Cc1ccc(O)cc1)NC(=O)[C@H](CCCNC(=N)N)NC(=O)[C@H](CO)NC(=O)[C@H](Cc1ccc(O)cc1)NC(=O)[C@H](CC(=O)O)NC(=O)[C@H](CO)NC(=O)[C@@H](NC(=O)[C@H](Cc1ccccc1)NC(=O)[C@@H](NC(=O)CNC(=O)[C@H](CCC(N)=O)NC(=O)[C@H](CO)NC(=O)[C@@H](N)Cc1c[nH]cn1)[C@@H](C)O)[C@@H](C)O)C(=O)N[C@@H](CC(=O)O)C(=O)N[C@@H](CCC(=O)O)C(=O)N[C@@H](CCCNC(=N)N)C(=O)N[C@@H](CCCNC(=N)N)C(=O)N[C@@H](C)C(=O)N[C@@H](CCC(N)=O)C(=O)N[C@@H](CC(=O)O)C(=O)N[C@@H](Cc1ccccc1)C(=O)N[C@H](C(=O)N[C@@H](CCCCNC(=O)CC[C@H](NC(=O)CC[C@H](NC(=O)COCCOCCNC(=O)COCCOCCNC(=O)CC[C@H](NC(=O)CCCCCCCCCCCCCCC(=O)O)C(=O)O)C(=O)O)C(=O)O)C(=O)N[C@@H](Cc1c[nH]c2ccccc12)C(=O)N[C@@H](CC(C)C)C(=O)N[C@@H](CC(C)C)C(=O)N[C@@H](CO)C(=O)N[C@H](C(=O)O)[C@@H](C)O)C(C)C` [Example 94, N^ε24-[(4S)-4-carboxy-4-[[(4S)-4-carboxy-4-[[2-[2-[2-[[2-[2-[2-[[(4S)-4-carboxy-4-(15-carboxypentadecanoylamino)butanoyl]amino]ethoxy]ethoxy]acetyl]amino]ethoxy]ethoxy]acetyl]amino]butanoyl]amino]butanoyl]-[Arg12,Glu16,Lys24,Leu27,Ser28]-Glucagon] (H-HSQGTFTSDYSRYLDERRAQDFVK([γGlu-γGlu-AEEA-AEEA-γGlu-C16 diacid])WLLST-OH; N-terminus and C-terminus assumed) displayed an EC50 in data set [1] of 0.029 nM. Also, the “Chemical stability [Purity loss/14 days 37 C.]” value in data set [2] is 8.8%.

As for `CC(C)C[C@H](NC(=O)[C@H](Cc1c[nH]c2ccccc12)NC(=O)[C@H](CCCCNC(=O)CC[C@H](NC(=O)CC[C@H](NC(=O)COCCOCCNC(=O)COCCOCCNC(=O)CC[C@H](NC(=O)CCCCCCCCCCCCCCCCC(=O)O)C(=O)O)C(=O)O)C(=O)O)NC(=O)[C@@H](NC(=O)[C@H](Cc1ccccc1)NC(=O)[C@H](CC(=O)O)NC(=O)[C@H](CCC(N)=O)NC(=O)[C@H](C)NC(=O)[C@H](CCCNC(=N)N)NC(=O)[C@H](CCCNC(=N)N)NC(=O)[C@@H](NC(=O)[C@H](CC(=O)O)NC(=O)[C@H](CC(C)C)NC(=O)[C@H](Cc1ccc(O)cc1)NC(=O)[C@H](CCCCN)NC(=O)[C@H](CO)NC(=O)[C@H](Cc1ccc(O)cc1)NC(=O)[C@H](CC(=O)O)NC(=O)[C@H](CO)NC(=O)[C@@H](NC(=O)[C@H](Cc1ccccc1)NC(=O)[C@@H](NC(=O)CNC(=O)[C@H](CCC(N)=O)NC(=O)[C@H](CO)NC(=O)[C@@H](N)Cc1c[nH]cn1)[C@@H](C)O)[C@@H](C)O)[C@@H](C)O)C(C)C)C(=O)N[C@@H](CC(C)C)C(=O)N[C@@H](CO)C(=O)N[C@H](C(N)=O)[C@@H](C)O` [Example 39, N^ε24-[(4S)-4-carboxy-4-[[(4S)-4-carboxy-4-[[2-[2-[2-[[2-[2-[2-[[(4S)-4-carboxy-4-(17-carboxyheptadecanoylamino)butanoyl]amino]ethoxy]ethoxy]acetyl]amino]ethoxy]ethoxy]acetyl]amino]butanoyl]amino]butanoyl]-[Thr16,Lys24,Leu27,Ser28]-Glucagon amide], in data set [1], the EC50 is 0.039 nM. The “Chemical stability [Purity loss/14 days 37 C.]” value in data set [2] is 7.8%.
